Data published in publication PMC11213860, “Competitive protein recruitment in artificial cells” (Communications Chemistry, 2024).

Experiments:
14-3-3γ = biological target: T1, 14-3-3γ (Homo sapiens, UniProt P61981); test: Fluorescence anisotropy assay, titration of 14-3-3γ to labeled peptide; assay type: binding; conditions: ratio of KD values from fluorescence anisotropy
T1 construct: His-tagged full-length 14-3-3σ and 14-3-3γ were kindly provided by
T1 sequence (P61981 1-247): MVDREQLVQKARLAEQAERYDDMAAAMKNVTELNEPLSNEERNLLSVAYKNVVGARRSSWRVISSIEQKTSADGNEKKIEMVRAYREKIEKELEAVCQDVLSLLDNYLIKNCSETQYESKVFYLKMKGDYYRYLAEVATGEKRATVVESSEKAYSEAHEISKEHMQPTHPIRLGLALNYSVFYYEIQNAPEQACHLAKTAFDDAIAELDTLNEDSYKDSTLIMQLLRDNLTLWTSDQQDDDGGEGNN

T14-3-3 = test: Fluorescence anisotropy assay, titration of T14-3-3 to labeled peptides; assay type: binding; conditions: Supplementary Table 1; unphosphorylated peptide, cf. Supplementary Fig. 7
Protocol: 14-3-3 was titrated in a 2-fold dilution series to 10 nM of fluorescently labeled peptide in coacervate buffer (20 mM HEPES, 100 mM KCl, pH 7.5) supplemented with 0.1% (v/v) of Tween 20 and 1 mg/mL of bovine serum albumin (BSA) to prevent aspecific hydrophobic interactions. Dilution series were prepared in low volume, non-binding polystyrene 384-well plates (Corning 4514 Black Round Bottom 384-well plates). Measurements were performed directly after plate preparation using a Tecan Spark plate reader at room temperature. The following settings were used: excitation 485 ± 20 nm; emission: 535 ± 25 nm; mirror: Dichroic 510; number of flashes: 30; integration time: 40 µs; settle time: 1 ms; gain: optimal; and Z-position: calculated from well. Wells containing only the labeled peptide were used to set as G-factor at 35 mAU. All data were analyzed using GraphPad Prism (version 10.0.3) and fitted using a four-parameter logistic model (4PL) to determine binding affinities (KD). All results are based on triplicates, with the mean and standard error determined by GraphPad.

BiExoS [change] peptide = test: fluorescence polarisation

In the case of `CC(C)C[C@H](NC(=O)[C@H](CO)NC(=O)CNC(=O)[C@H](CCC(=O)O)NC(=O)[C@H](CO)NC(=O)[C@H](CO)NC(=O)[C@@H]1CCCN1C(=O)[C@H](CO)NC(=O)[C@H](CO)NC(=O)[C@@H](NC(=O)[C@H](CC(N)=O)NC(=O)[C@H](Cc1ccccc1)NC(=O)[C@@H](NC(=O)[C@H](Cc1ccccc1)NC(=O)[C@H](C)NC(=O)[C@H](Cc1c[nH]cn1)NC(=O)[C@@H]1CCCN1C(=O)[C@@H](NC(=O)[C@H](COP(=O)(O)O)NC(=O)[C@H](Cc1ccc(O)cc1)NC(=O)[C@H](CCCNC(=N)N)NC(=O)[C@H](Cc1c[nH]cn1)NC(=O)[C@H](CCC(N)=O)NC(=O)CCCCCNC(=S)Nc1ccc2c(c1)C(=O)OC21c2ccc(O)cc2Oc2cc(O)ccc21)[C@@H](C)O)[C@@H](C)O)[C@@H](C)O)C(=O)N[C@@H](CO)C(=O)N[C@@H](CCC(N)=O)C(=O)N[C@@H](CCCNC(=N)N)C(=O)N[C@@H](CCC(N)=O)C(=O)N[C@@H](CCCNC(=N)N)C(=O)N[C@@H](CO)C(=O)N[C@H](C(=O)N[C@@H](COP(=O)(O)O)C(=O)N[C@H](C(=O)N1CCC[C@H]1C(=O)N[C@@H](CC(N)=O)C(=O)N[C@H](C(=O)N[C@@H](Cc1c[nH]cn1)C(N)=O)C(C)C)[C@@H](C)O)[C@@H](C)O` [FITC-c-Raf pS], the “difference in bulk affinity of the peptide for the two isoforms (14-3-3σ vs 14-3-3γ)” value (14-3-3γ) is reported as 40 fold.

“FITC-Ahx-QHRYSTPHAFTFNTSSPSSEGSLSQRQRSTSTPNVH-Ac [c-Raf S233/S259, unphosphorylated FITC-labeled c-Raf S233/S259 peptide]” was tested, and the “Binding mode to 14-3-3” value (T14-3-3) was “No binding”.

“His-tagged full-length 14-3-3γ (from UniProt P61981 1-247) (natural protein)” was tested, and the Kd (BiExoS [change] peptide) was 0.059 µM.

B1: His-tagged full-length 14-3-3σ (natural protein)
chain: MERASLIQKAKLAEQAERYEDMAAFMKGAVEKGEELSCEERNLLSVAYKNVVGGQRAAWRVLSSIEQKSNEEGSEEKGPEVREYREKVETELQGVCDTVLGLLDSHLIKEAGDAESRVFYLKMKGDYYRYLAEVATGDDKKRIIDSARSAYQEAMDISKKEMPPTNPIRLGLALNFSVFHYEIANSPEEAISLAKTTFDEAMADLHTLSEDSYKDSTLIMQLLRDNLTLWTADNAGEEGGEAPQEPQS
modifications: in the coacervate experiments labelled with Cy5 or DyLight 405 (NHS ester, aspecific)
Molecule B1 has a Kd (BiExoS [change] peptide) of 23 µM.
